What was measured:
Format in all cases: in vivo
[1] = system: Alopecurus myosuroides (ALOMY); test: Pre-emergence herbicidal glasshouse test on Alopecurus myosuroides; settings: pre-emergence; 1000 g/h; evaluated after 13 days
Procedure, shortened: (§1)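 Pre-emergence treatment came one day after sowing, post-emergence treatment after eight days' growth; both used 1000 g/h in a 0.5% Tween 20 acetone/water vehicle. Percent damage, scored 1–5, was read 13 days later.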

Setaria faberi (SETFA) [2] = test: Pre-emergence herbicidal glasshouse test on Setaria faberi; settings: pre-emergence; 1000 g/h; evaluated after 13 days
Procedure, shortened: as §1

[3] = system: Echinochloa crus-galli (ECHCG); test: Pre-emergence herbicidal glasshouse test on Echinochloa crus-galli; settings: pre-emergence; 1000 g/h; evaluated after 13 days
Procedure, shortened: as §1

Solanum nigrum (SOLNI) [4] = test: Pre-emergence herbicidal glasshouse test on Solanum nigrum; settings: pre-emergence; 1000 g/h; evaluated after 13 days
Procedure, shortened: as §1

[5] = system: Amaranthus retoflexus (AMARE); test: Pre-emergence herbicidal glasshouse test on Amaranthus retoflexus; settings: pre-emergence; 1000 g/h; evaluated after 13 days
Procedure, shortened: as §1

[6] = system: Ipomoea hederacea (IPOHE); test: Pre-emergence herbicidal glasshouse test on Ipomoea hederacea; settings: pre-emergence; 1000 g/h; evaluated after 13 days
Procedure, shortened: as §1

[7] = system: Alopecurus myosuroides (ALOMY); test: Post-emergence herbicidal glasshouse test on Alopecurus myosuroides; settings: post-emergence; 1000 g/h; evaluated after 13 days
Procedure, shortened: as §1

Setaria faberi (SETFA) [8] = test: Post-emergence herbicidal glasshouse test on Setaria faberi; settings: post-emergence; 1000 g/h; evaluated after 13 days
Procedure, shortened: as §1

[9] = system: Echinochloa crus-galli (ECHCG); test: Post-emergence herbicidal glasshouse test on Echinochloa crus-galli; settings: post-emergence; 1000 g/h; evaluated after 13 days
Procedure, shortened: as §1

Solanum nigrum (SOLNI) [10] = test: Post-emergence herbicidal glasshouse test on Solanum nigrum; settings: post-emergence; 1000 g/h; evaluated after 13 days
Procedure, shortened: as §1

[11] = system: Amaranthus retoflexus (AMARE); test: Post-emergence herbicidal glasshouse test on Amaranthus retoflexus; settings: post-emergence; 1000 g/h; evaluated after 13 days
Procedure, shortened: as §1

[12] = system: Ipomoea hederacea (IPOHE); test: Post-emergence herbicidal glasshouse test on Ipomoea hederacea; settings: post-emergence; 1000 g/h; evaluated after 13 days
Procedure, shortened: as §1

SMILES	PRE Application ALOMY herbicidal damage (five point scale) [1]	PRE Application SETFA herbicidal damage (five point scale) (Setaria faberi (SETFA) [2])	PRE Application ECHCG herbicidal damage (five point scale) [3]	PRE Application SOLNI herbicidal damage (five point scale) (Solanum nigrum (SOLNI) [4])	PRE Application AMARE herbicidal damage (five point scale) [5]	PRE Application IPOHE herbicidal damage (five point scale) [6]	POST Application ALOMY herbicidal damage (five point scale) [7]	POST Application SETFA herbicidal damage (five point scale) (Setaria faberi (SETFA) [8])	POST Application ECHCG herbicidal damage (five point scale) [9]	POST Application SOLNI herbicidal damage (five point scale) (Solanum nigrum (SOLNI) [10])	POST Application AMARE herbicidal damage (five point scale) [11]	POST Application IPOHE herbicidal damage (five point scale) [12]
Cn1ncc(-n2ccc(C(F)(F)F)c(-c3cncnc3)c2=O)c(O)c1=O [Compound 1.024]	1 (1=0-19% damage)	1 (1=0-19% damage)	2 (2=20-39% damage)	1 (1=0-19% damage)	5 (5=80-100% damage)	4 (4=60-79% damage)	1 (1=0-19% damage)	3 (3=40-59% damage)	2 (2=20-39% damage)	5 (5=80-100% damage)	5 (5=80-100% damage)	4 (4=60-79% damage)
Cn1ncc(-c2ccc(C(F)(F)F)nc2S(C)(=O)=O)c(O)c1=O [Compound 4.003]	5 (5=80-100% damage)	5 (5=80-100% damage)	5 (5=80-100% damage)	5 (5=80-100% damage)	5 (5=80-100% damage)	5 (5=80-100% damage)	5 (5=80-100% damage)	5 (5=80-100% damage)	5 (5=80-100% damage)	5 (5=80-100% damage)	5 (5=80-100% damage)	5 (5=80-100% damage)
COc1cccc(-c2c(C(F)(F)F)ccn(-c3cnn(C)c(=O)c3O)c2=O)c1 [Compound 7.003]	4 (4=60-79% damage)	4 (4=60-79% damage)	4 (4=60-79% damage)	5 (5=80-100% damage)	5 (5=80-100% damage)	3 (3=40-59% damage)	4 (4=60-79% damage)	3 (3=40-59% damage)	5 (5=80-100% damage)	5 (5=80-100% damage)	5 (5=80-100% damage)	3 (3=40-59% damage)
Cn1ncc(-c2cc(Cl)ccc2Cl)c(O)c1=O [Compound 1.099]	1 (1=0-19% damage)	1 (1=0-19% damage)	1 (1=0-19% damage)	1 (1=0-19% damage)	1 (1=0-19% damage)	1 (1=0-19% damage)	1 (1=0-19% damage)	1 (1=0-19% damage)	1 (1=0-19% damage)	2 (2=20-39% damage)	3 (3=40-59% damage)	2 (2=20-39% damage)
CCn1ncc(-c2ccc(C(F)(F)F)cc2S(C)(=O)=O)c(O)c1=O [Compound 2.016]	5 (5=80-100% damage)	5 (5=80-100% damage)	5 (5=80-100% damage)	5 (5=80-100% damage)	5 (5=80-100% damage)	5 (5=80-100% damage)	5 (5=80-100% damage)	5 (5=80-100% damage)	5 (5=80-100% damage)	5 (5=80-100% damage)	5 (5=80-100% damage)	5 (5=80-100% damage)
Cc1cccc(-c2c(C(F)(F)F)ccn(-c3cnn(C)c(=O)c3O)c2=O)c1 [Compound 1.038, 4-hydroxy-2-methyl-5-[3-(m-tolyl)-2-oxo-4-(trifluoromethyl)-1-pyridyl]pyridazin-3-one]	3 (3=40-59% damage)	3 (3=40-59% damage)	5 (5=80-100% damage)	5 (5=80-100% damage)	5 (5=80-100% damage)	1 (1=0-19% damage)	4 (4=60-79% damage)	5 (5=80-100% damage)	4 (4=60-79% damage)	5 (5=80-100% damage)	5 (5=80-100% damage)	4 (4=60-79% damage)
Cc1ccc(F)cc1-c1cnn(C)c(=O)c1O [Compound 1.094]	1 (1=0-19% damage)	1 (1=0-19% damage)	1 (1=0-19% damage)	1 (1=0-19% damage)	1 (1=0-19% damage)	1 (1=0-19% damage)	1 (1=0-19% damage)	1 (1=0-19% damage)	1 (1=0-19% damage)	2 (2=20-39% damage)	1 (1=0-19% damage)	1 (1=0-19% damage)
Cn1ncc(-c2ccc(S(=O)(=O)Cc3ccccc3)cc2S(C)(=O)=O)c(O)c1=O [Compound 2.036]	5 (5=80-100% damage)	5 (5=80-100% damage)	5 (5=80-100% damage)	5 (5=80-100% damage)	5 (5=80-100% damage)	5 (5=80-100% damage)	5 (5=80-100% damage)	5 (5=80-100% damage)	5 (5=80-100% damage)	5 (5=80-100% damage)	5 (5=80-100% damage)	5 (5=80-100% damage)
Cn1ncc(-c2ccc(C(F)(F)F)nc2N2CCOCC2)c(O)c1=O [Compound 1.075]	1 (1=0-19% damage)	1 (1=0-19% damage)	5 (5=80-100% damage)	5 (5=80-100% damage)	5 (5=80-100% damage)	2 (2=20-39% damage)	3 (3=40-59% damage)	2 (2=20-39% damage)	5 (5=80-100% damage)	5 (5=80-100% damage)	5 (5=80-100% damage)	5 (5=80-100% damage)
Cn1ncc(-c2ccc(C(F)(F)F)cc2[N+](=O)[O-])c(O)c1=O [Compound 1.110]	1 (1=0-19% damage)	1 (1=0-19% damage)	1 (1=0-19% damage)	1 (1=0-19% damage)	5 (5=80-100% damage)	1 (1=0-19% damage)	1 (1=0-19% damage)	1 (1=0-19% damage)	3 (3=40-59% damage)	5 (5=80-100% damage)	5 (5=80-100% damage)	5 (5=80-100% damage)
